Experiment in all cases: inhibition of tumour cell growth, NCI panel, 48 h
Assay [1] has as its system ACHN renal.
In assay [2] the test system is CAKI-1 renal.
Assay [3] deals with COLO 205 colon.
Assay [4] relates to HCT-116 colon.
Assay [5] deals with KM12 colon.
The test system of assay [6] is LOX IMVI melanoma.
Assay [7] has as its system NCI-H226 lung.
Assay [8] has as its system U251 CNS.
For assay [9], the system named is UACC-62 melanoma.
The test system of assay [10] is HOP-92 NSCLC.

“And” between values parts separate entries of the source, which are not always exact repeats. Equal values may be shown once.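 These data come from cells grown in 96-well plates and exposed to compound for 48 hours at five concentrations. At the GI50, growth is halved. The concentration for full growth arrest is given as TGI.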

For `COC(=O)/C(=N\NC(N)=S)C(C(=O)OC)C(=O)C(=O)Nc1ccc(C)cc1` (stereo unspecified), the TGI in assay [1], in [2], in [3], in assay [4], in [5] and in assay [6] was > 100 µM each time. The TGI in assay [7], in assay [8] and in [9] was > 100 µM each time.

As to `CCOC(=O)c1ccc(/C(C)=N/NC(N)=S)cc1`, the TGI in assay [1], in assay [3], in assay [4], in [10], in assay [6] and in assay [8] was > 100 µM each time. In addition, the TGI in [9] was > 100 µM.

As to `O=[N+]([O-])c1ccc2occ3c2c1CCC3`, the TGI in [1], in assay [3], in assay [4], in assay [10], in assay [5] and in [6] was > 100 µM in each case. Besides, the TGI in assay [7], in assay [8] and in [9] was > 100 µM in each case.

With `O=C(OC1CCC(=C2SCCCS2)[C@H]1C1SCCCS1)c1ccccc1` (stereo partly specified), the TGI in assay [1], in assay [3], in assay [4], in assay [10], in assay [5] and in [6] was > 100 µM throughout. For the same molecule, the TGI in assay [7], in assay [8] and in assay [9] was > 100 µM throughout.

As for `CCOC(=O)N[C@H]1CCc2cc(OC)c(OC)c(OC)c2-c2ccc(SC)c(=O)cc21`, the TGI in assay [1] was > 100 µM; in assay [4] it was 6.09 µM and > 39 µM; in assay [10], > 100 µM; in assay [6], > 100 µM; in assay [7] it was 3.29 µM; in [8], 61.3 µM and > 100 µM. The TGI in assay [9] is 70.7 µM and > 100 µM. Further, the values for the GI50 in assay [2] and in [10] were < 0.0182 µM and 0.0198 µM, respectively.

`CC(C)(C)c1cc(C(P(=O)(O)O)P(=O)(O)O)cc(C(C)(C)C)c1O`: the TGI in [1], in assay [2], in [4], in assay [10], in assay [5] and in assay [6] was > 100 µM in each case. Besides, the TGI in assay [7], in assay [8] and in assay [9] was > 100 µM each time.

Regarding `CC1(C)COC(c2cccc3c2C(=O)c2cccc(Cl)c2-3)=N1`, the TGI in [1], in [2], in [3], in assay [5], in assay [6] and in assay [8] was > 100 µM each time. Besides, the TGI in assay [9] was > 100 µM.

On to `COc1ccc(C(=O)Nc2ccc(O)c(=O)cc2)cc1`, for which the TGI in assay [1] is 59.8 µM; in assay [2], > 100 µM; in assay [3] it was 57 µM; in [4] it was > 100 µM; in assay [5], > 100 µM; in assay [6] it was > 100 µM. The TGI in assay [7], in assay [8] and in [9] was > 100 µM throughout.

Regarding `COc1ccc(OCC(=O)O)c2c1CCCC2=O`, the TGI in assay [1], in [3], in assay [4], in assay [10], in assay [5] and in assay [6] was > 100 µM in each case. In addition, the TGI in assay [7], in assay [8] and in assay [9] was > 100 µM in each case.

With `COc1ccc(CCN(C)C2CCC(C#N)(c3ccc(OC)c(OC)c3)CC2)cc1OC` (stereo unspecified), the TGI in [1] was > 100 µM; in assay [3], 91.4 µM; in [4] it was > 100 µM; in [10] it was > 100 µM; in [5], > 100 µM; in assay [6], > 100 µM. Also, the TGI in assay [7], in assay [8] and in [9] was > 100 µM in each case.

Consider `COc1cnc2c(c1)C(=O)c1c-2n(CCCNC2=NCCS2)c(=O)c2cc([N+](=O)[O-])ccc12`, for which the GI50 in [1] was < 0.01 µM; in assay [2], < 0.01 µM; in assay [5] it was 1.11 µM. Further, the TGI in assay [1] came to 1.15 µM; in [2], 1.47 µM; in assay [5], 3.13 µM.

For the molecule `C=CCCCCC1CCC2CCC(CCCCC=C)N12` (stereo unspecified), the TGI amounted to 28.5 µM in assay [1]; 84.8 µM in [2]; 32.5 µM in assay [3]; 30.2 µM in [4]; 22.8 µM in [10]; 29.6 µM in assay [5]. The TGI in [7] was 34.1 µM; in [8] it was 34.6 µM; in [9], 30.6 µM.

With `Cc1ccc2nc(/C(=C/c3ccc(/C=C(\NC(=O)c4ccccc4)c4nc5ccc(C)cc5[nH]4)c(C)c3)NC(=O)c3ccccc3)[nH]c2c1`, the TGI in [1] is > 100 µM; in [2], 91.3 µM; in [3], 80.4 µM; in [4], 39.8 µM; in assay [10], 52 µM; in assay [5], 37.5 µM. For the same molecule, the TGI in assay [7] worked out at 77.5 µM; in assay [8], 60.2 µM; in [9], 13.1 µM.

Turning to `Cc1nc(Nc2cccnc2)sc1C(=O)/C=C/c1ccc(F)cc1`, the GI50 in assay [2] is 3.39 µM; in [3], 2.81 µM; in [4], 1.64 µM; in assay [10], 3.1 µM; in [5], 2.04 µM; in assay [6], 2.36 µM. The figures for the GI50 in assay [8] and in [9] were 2.95 µM and 1.99 µM, respectively. The TGI in [2] was 13.6 µM; in assay [3], 8.86 µM; in [4], 4.18 µM; in assay [10], 9.98 µM; in assay [5] it was 4.61 µM; in [6] it was 6.52 µM. For the same molecule, the values for the TGI in [8] and in [9] were 8.83 µM and 4.99 µM, respectively.

These data come from PubChem BioAssay (NCI).
